Test results reported in publication PMC10747034 (Tropical Medicine and Infectious Disease, 2023).
Where “and” joins values, the source holds several entries; their conditions need not be identical. Equal values may be shown once. Entries after “also recorded” stand apart in the source; their conditions may differ. Read-outs that look alike come from different tables or passages of the source.

Legend:
[1] = Cytotoxicity assay (MTS, 7 days); format: cell-based, Human; conditions: human, NHDF cells, MTS, concentrations up to 10 µM, two independent experiments, read-out: Cytotoxicity against NHDF (7 Days) CC50
Protocol: (§1) For that, 96-well tissue plates containing NHDF cells were treated with different concentrations of compounds up to 10 µM for seven days. Control cells were incubated with 0.5% DMSO. At the end of the treatment, cell viability was then analyzed through the colorimetric method of MTS (Promega, Madison, WI, USA). […] Data were analyzed using GraphPad Prim 8.0 software. IC50 and CC50 calculations were performed by fitting the values of proliferation/viability in percentage to a non-linear curve followed by dose–response inhibition analysis through log(inhibitor) vs. normalized response.

NHDF cells = experiment: Cytotoxicity assay (MTS, 7 days); format: cell-based, Human; conditions: for CC50: MTS, read-out: Cytotoxicity against NHDF (7 Days) CC50
Protocol: as §1

[2] = system: Toxoplasma gondii tachyzoites of RH strain; experiment: Forty-eight-hour antiproliferative assay; format: cell-based; conditions: 48 h; for inhibition at 1 µM / inhibition at 0.25 µM: read-out: Inhibition of parasite proliferation
Protocol: NDHF cell monolayers were plated in a 24-well tissue plate containing coverslips, and after confluency was reached, cells were infected with a ratio of 5:1 parasite/host cells with freshly egressed RH strain tachyzoites for two hours. Then, cells were washed twice with phosphate-buffered saline, pH 7.4 (PBS), to remove non-invaded parasites and incubated with a complete medium for two hours more. After this time, infected cells were treated for 48 h with different concentrations of selected compounds, based on the IC50 obtained through plaque assay. At the end of the experiment, the cells were washed with PBS, stained with Bouin for 10 min, washed with 70% alcohol, and stained with solutions 2 and 3 of the Fast Panoptic kit for 60 and 10 s, respectively. Two hundred infected cells were quantified per slide using the 100× objective of a Leica DM500 optical microscope, stratifying the number of infected and non-infected cells and the amount of tachyzoite in each infected cell. The proliferation index is the ratio of the product of the total amount of tachyzoites and the percentage of infected cells by the total number of cells.

[3] = system: Toxoplasma gondii tachyzoites of RH strain; experiment: Post-treatment recovery (washout) assay; format: cell-based; conditions: 3 days of treatment, 7 days recovery without drug; 0.001 to 1 µM tested
Protocol: NHDF monolayers in 12-well plates were infected with 5000 newly egressed tachyzoites from RH strain and then treated for 3 days with drug concentrations of 0.001 to 1 µM. After treatment, the medium with drugs was removed, and the cells were washed twice and incubated with a fresh medium without drugs for an additional 7 days to allow the remaining parasites (if still viable after treatment) to grow. The plates were then kept in an incubator at 37 °C in a humid atmosphere with 5% CO2 throughout the treatment.

[4] = system: Toxoplasma gondii tachyzoites of RH strain; experiment: Plaque assay (7 days) in NHDF monolayers infected with T. gondii; format: cell-based; conditions: 7 days of treatment, two independent experiments
Protocol: After NHDF reached confluency, each well was replaced with fresh medium containing one compound at a concentration of 1 µM, and then infected with 1000 newly egressed tachyzoites from RH strain [29]. Screening at 1 μM is recommended by MMV. As a control, infected cells were incubated with complete medium and 0.01% DMSO [29]. The plates were then kept in an incubator at 37 °C in a humid atmosphere with 5% CO2 for seven days. After this time, cultures were fixed with 70% ethanol and stained with crystal violet to observe the plates.
For that, 12-well plates containing a monolayer of NHDF were infected with 600 tachyzoites of the RH strain of T. gondii and treated with different concentrations for seven days. IC50s of compounds were calculated using GraphPad Prism 8.0 software.
Data were analyzed using GraphPad Prim 8.0 software. IC50 and CC50 calculations were performed by fitting the values of proliferation/viability in percentage to a non-linear curve followed by dose–response inhibition analysis through log(inhibitor) vs. normalized response.

[5] = system: T. gondii tachyzoites (apicoplast); experiment: Immunofluorescence assay of apicoplast loss (anti-CPN60); format: cell-based, Toxoplasma gondii; conditions: 1 µM, 24 h
Protocol: Anti-CPN60 (kindly provided by Dr. Boris […], University of Georgia, USA) was used to label the apicoplast luminal protein CPN60 at a dilution of 1:2000. DAPI (5 μg/mL; Sigma-Aldrich) was used to label the DNA. After labeling, the coverslips were mounted onto slides using Prolong gold (Life Technologies, Eugene, OR, USA), and samples were examined on an Invitrogen EVOS fluorescence microscope.

T. gondii tachyzoites = experiment: Ultrastructural analysis through transmission electron microscopy; format: cell-based, Toxoplasma gondii; conditions: 48 h
Protocol: T-25 cm^2 flasks for cell culture with confluent monolayers of NHDF were infected with freshly egressed tachyzoite in a ratio of 10:1 parasite per cell for 2 h of interaction. The flasks were washed and fresh RPMI was added for another two hours. After this, the compounds were added and infected cells were treated for 48 h. The sample fixation and processing for microscopy were performed as previously described.

[6] = concentrations up to 10 µM, two independent experiments

COc1cc(NCc2ccc3nc(N)nc(N)c3c2C)cc(OC)c1OC [Trimetrexate]
CC50 at 7 days [1]: 11900 nM
SI (Selectivity Index, CC50 NHDF cells/IC50 T. gondii) (NHDF cells): 3046
inhibition at 0.015 µM ([2]; Toxoplasma gondii, 15 nM, read-out: Inhibition of tachyzoite proliferation): > 90%
Inhibition of T. gondii proliferation ([2]; concentrations close to 2 nM): approximately 50%
Concentrations at which monolayer lysis and plaque areas were seen after washout [3]: 0.001 to 0.1 µM

CCc1nc(N)nc(N)c1-c1ccc(Cl)cc1 [PYR, pyrimethamine]
Concentration that abolished parasite proliferation recovery (no plaques) [3]: > 1 µM
Concentrations at which monolayer lysis and plaque areas were seen after washout [3]: all concentrations

Cc1nc2ccc(Oc3ccccc3)cc2c2c1CCN2CCc1ccccc1 [MMV1634399]
IC50 [4]: 920.3 ± 0.1 nM
CC50 (NHDF cells; [6]): 24100 nM

COc1cc(NS(=O)(=O)c2ccc(C)cc2)c2ncccc2c1 [DNDI1417411]
IC50 [4]: 485 ± 43.8 nM
CC50 (NHDF cells; [6]): 14500 nM
Inhibition of parasite proliferation ([2]; 1 µM): more than 60%

CC1=C(/C=C/C(C)=C/C=C/C(C)=C/C(=O)Nc2ccc(O)cc2)C(C)(C)CCC1 [Fenretinide]
IC50 ([4]; Toxoplasma gondii, NHDF, 168 h): 918 ± 29.1 nM
CC50 at 7 days [1]: 26700 nM
SI (Selectivity Index, CC50 NHDF cells/IC50 T. gondii) (NHDF cells): 29

O=S(=O)(Nc1cccc2cccnc12)c1ccccc1 [MMV1578890]
IC50 [4]: 1100 ± 0.1 nM
CC50 (NHDF cells; [6]): 10300 nM

C=C[C@]1(C)C[C@@H](OC(=O)CS[C@@H]2C[C@H]3CC[C@@H](C2)N3C)[C@]2(C)[C@H](C)CC[C@]3(CCC(=O)[C@H]32)[C@@H](C)[C@@H]1O [Retapamulin]
IC50 [4]: < 100 nM
CC50 at 7 days [1]: 9980 nM
SI (Selectivity Index, CC50 NHDF cells/IC50 T. gondii) (NHDF cells): 270
Inhibition of parasite proliferation ([2]; 1 µM): more than 50%
inhibition at 1 µM ([2]; Toxoplasma gondii, 1 µM): > 60%
Frequency of vacuoles (4 or 8 parasites) with at least one parasite presenting apicoplast loss [5]: higher than 30%

Cn1cc(NC(=O)c2cc(NC(=O)c3ccc(/C=C/c4cnc5ccccc5c4)cc3)cn2C)cc1C(=O)NCCN1CCOCC1 [MMV1634391]
CC50 (NHDF cells; ND = 100% viability up to 10 µM): > 10000 nM
Frequency of vacuoles (4 or 8 parasites) with at least one parasite presenting apicoplast loss [5]: higher than 30%

Cc1cc(C2CCCCC2)n(O)c(=O)c1 [Ciclopirox]
IC50 ([4]; Toxoplasma gondii, NHDF, 168 h): 497 ± 18.1 nM
CC50 at 7 days [1]: 4000 nM
SI (Selectivity Index, CC50 NHDF cells/IC50 T. gondii) (NHDF cells): 8

CCC[C@@H]1C[C@@H](C(=O)N[C@@H]([C@H]2O[C@H](SC)[C@H](O)[C@@H](O)[C@H]2O)[C@H](C)Cl)N(C)C1 [Clindamycin]
Frequency of vacuoles (4 or 8 parasites) with at least one parasite presenting apicoplast loss [5]: higher than 30%

COc1cc(C)c2c(Oc3cccc(C(F)(F)F)c3)c(OC)cc(NC(C)CCCN)c2n1 (stereo not shown) [Tafenoquine]
IC50 ([4]; Toxoplasma gondii, NHDF, 168 h): 896.9 ± 0.1 nM
CC50 at 7 days [1]: 16300 nM
SI (Selectivity Index, CC50 NHDF cells/IC50 T. gondii) (NHDF cells): 18

Nc1nc(Nc2ccc3nc(-c4ccc(F)cc4)cc(N)c3c2)cc(-c2ccccc2)n1 [MMV1593541]
CC50 (NHDF cells; [6]): 2540 nM
Inhibition of T. gondii proliferation ([2]; 125 nM): more than 50%
Inhibition of parasite proliferation ([2]; 0.25 µM): around 60%
Ultrastructural alterations on tachyzoites (TEM) (T. gondii tachyzoites; 0.5 µM): induced the formation of extensive cytoplasm vacuolization

COc1ccc2sc3c(c2c1)NC(C)CNC3=O (stereo not shown) [MMV1782115]
IC50 [4]: ≤ 200 nM and 161 nM
CC50 (NHDF cells; [6]): 9430 nM
Inhibition of parasite proliferation ([2]; 1 µM): more than 60%

Oc1cccc(C(Nc2nccs2)c2ccc3cccnc3c2O)c1 (stereo not shown) [MMV642550]
IC50 [4]: 320 ± 17 nM
CC50 (NHDF cells; [6]): 6730 nM
Inhibition of T. gondii proliferation ([2]; 0.5 µM): around 75%
Ultrastructural alterations on tachyzoites (TEM) (T. gondii tachyzoites; 1 µM): affected the Golgi complex (GC) (Figure 4E) and induced extensive vacuolization inside the parasite body

CC[C@H]1OC(=O)[C@H](C)[C@@H](O[C@H]2C[C@@](C)(OC)[C@@H](O)[C@H](C)O2)[C@H](C)[C@@H](O[C@@H]2O[C@H](C)C[C@H](N(C)C)[C@H]2O)[C@](C)(O)C[C@@H](C)C(=O)[C@H](C)[C@@H](O)[C@]1(C)O [Erythromycin]
IC50 [4]: 131 ± 15.8 nM
IC50 ([4]; Toxoplasma gondii, NHDF, 168 h): ≤ 200 nM
CC50 at 7 days [1]: 11900 nM
SI (Selectivity Index, CC50 NHDF cells/IC50 T. gondii) (NHDF cells): 91

Oc1c(C(Nc2nc3ccccc3s2)c2ccc(OC(F)F)cc2)ccc2cccnc12 (stereo not shown) [MMV019724]
IC50 [4]: ≤ 200 nM and 109 nM
CC50 (NHDF cells; [6]): 2500 nM
Inhibition of parasite proliferation ([2]; 0.25 µM): more than 80%
Inhibition of parasite proliferation ([2]; 1 µM): 99%
Ultrastructural alterations on tachyzoites (TEM) (T. gondii tachyzoites; 0.25 µM): affected the parasite cell division process; also recorded: induced a lytic effect in the parasite

CCCCC(CC)CNC(=N)NC(=N)NCCCCCCNC(=N)NC(=N)NCC(CC)CCCC (stereo not shown) [Alexidine]
IC50 ([4]; Toxoplasma gondii, NHDF, 168 h): 272 ± 38.4 nM
CC50 at 7 days [1]: 1630 nM
SI (Selectivity Index, CC50 NHDF cells/IC50 T. gondii) (NHDF cells): 6
inhibition at 0.25 µM ([2]; Toxoplasma gondii, 0.25 µM): ~60%

NC(=S)N/N=C/c1ncccc1N [Triapine]
IC50 ([4]; Toxoplasma gondii, NHDF, 168 h): 717.7 ± 0.1 nM
CC50 at 7 days [1]: 2800 nM
SI (Selectivity Index, CC50 NHDF cells/IC50 T. gondii) (NHDF cells): 4
inhibition at 1 µM ([2]; Toxoplasma gondii, 1 µM): > 60%

CCc1nc(N)nc(N)c1C#CC(C)c1cc(OC)cc(-c2ccncc2)c1 (stereo not shown) [MMV1580844]
CC50 (NHDF cells; [6]): 11200 nM
Inhibition of tachyzoite proliferation ([2]; 7 nM): more than 90%
Inhibition of T. gondii proliferation ([2]; concentrations close to 2 nM): approximately 50%
Concentrations at which monolayer lysis and plaque areas were seen after washout [3]: 0.001 to 0.01 µM
Ultrastructural alterations on tachyzoites (TEM) (T. gondii tachyzoites; 3 nM): caused parasite lysis; also recorded: disrupted the parasite division process

O=C(/C=C\n1cnc(-c2cc(C(F)(F)F)cc(C(F)(F)F)c2)n1)NNc1ccccn1 [Verdinexor]
IC50 [4]: 70 ± 24.4 nM
IC50 ([4]; listed as verdinexor): ≤ 200 nM
CC50 at 7 days [1]: 2860 nM
inhibition at 0.25 µM ([2]; Toxoplasma gondii, 0.25 µM): > 80%
inhibition at 1 µM ([2]; Toxoplasma gondii, 1 µM): 99%
Ultrastructural alterations on tachyzoites (TEM) (T. gondii tachyzoites; 0.25 µM): caused a drastic effect on the division of the parasite; also recorded: caused extensive vacuolization; also recorded: induced mitochondrial alterations

Fc1ccc(-c2nc(-c3c[nH]c4ccc(Br)cc34)[nH]c2-c2ccc(F)cc2)cc1 [MMV1593537]
IC50 [4]: 940 ± 38.6 nM
CC50 (NHDF cells; [6]): 5660 nM
